{
  "source": "patent US10294260B2",
  "about": "“Tetracyclic anthraquinone derivatives” (TIANJIN HEMAY ONCOLOGY PHARMACEUTICAL CO., LTD., priority 2012, dated 2019)",
  "key": {"mice of ICR strain": {"system": "mice of ICR strain", "assay": "Assay on MTD (maximum tolerated dose) in vivo of mice", "settings": "for Number of Dead Animals ♂/♀ / Number of animals that died immediately after the injection (a) ♂/♀: male/female; for Number of animals that died immediately after the injection (a) ♂/♀: not counted in mortality rate", "experimental": "Assay on MTD (Maximum Tolerated Dose) In Vivo of Mice\nAssay on Maximum Tolerated Dose of Compound\nAssay animals: mice of ICR strain with a weight of 18-22 g, purchased from Beijing Vital River Laboratories Limited, License SCXK (jing) 2007-0001.\nAdministration Regimen: each experimental animal was administered with corresponding dosage of tested substance once by injection of caudal vain every three days. Each dosage was initially designed as 5 times of administration. The specific time of administration depended on the conditions of the animals. It should be carefully observed the behavior conditions of the animals within 2 hours after administration. The animal's behavior was observed every 4 hours in the day of administration. The survival conditions and weight of animals were recorded every day and observed for whether abnormality occurred on the body surface thereof. The experimental animals were sacrificed on 14 day after administration and dissected for observation.\nI group: (20 mg/kg) group;\nII group: (25 mg/kg) group;\nIII group: (30 mg/kg) group;\nIV group: solvent control group;\nThere were four groups in total. Each group consisted of five male mice and five female mice.\nI group: (40 mg/kg) group;\nII group: (45 mg/kg) group;\nIII group: (50 mg/kg) group;\nV group: (60 mg/kg) group;\nThere were five groups in total. Each group consisted of six male mice and six female mice."}, "[1]": {"assay": "Storage stability detected by HPLC", "format": "physicochemical", "settings": "sealed and stored for 9 months under refrigeration conditions"}},
  "data": [
    {"smiles": "COc1cccc2c1C(=O)c1c(O)c3c(c(O)c1C2=O)CC(O)(C(=O)COC(=O)CCC(=O)O)CC3OC1CC(n2cccc2)C(O)C(C)O1", "note": "(centres unmarked) [Compound A, 3′-pyrrolyldoxorubicin-14-oxo-succinic acid monoester]", "values": [
      {"measurement": "Number of Dead Animals ♂/♀", "setting": "mice of ICR strain; 30 mg/kg, 5 administrations", "result": "0/1"},
      {"measurement": "Mortality Rate (%)", "setting": "mice of ICR strain; 30 mg/kg, 5 administrations, total dosage 150 mg/kg", "result": 10, "unit": "%"},
      {"measurement": "Number of Dead Animals ♂/♀", "setting": "mice of ICR strain; 40 mg/kg, 5 administrations", "result": "3/2"},
      {"measurement": "Mortality Rate (%)", "setting": "mice of ICR strain; 40 mg/kg, 5 administrations, total dosage 200 mg/kg", "result": 50, "unit": "%"},
      {"measurement": "Number of Dead Animals ♂/♀", "setting": "mice of ICR strain; 50 mg/kg, 5 administrations", "result": "5/5"},
      {"measurement": "Mortality Rate (%)", "setting": "mice of ICR strain; 50 mg/kg, 5 administrations, total dosage 250 mg/kg", "result": 100, "unit": "%"},
      {"measurement": "Number of Dead Animals ♂/♀", "setting": "mice of ICR strain; 60 mg/kg, 5 administrations", "result": "5/5"},
      {"measurement": "Mortality Rate (%)", "setting": "mice of ICR strain; 60 mg/kg, 5 administrations, total dosage 300 mg/kg", "result": 100, "unit": "%"}
    ]},
    {"smiles": "COc1cccc2c1C(=O)c1c(O)c3c(c(O)c1C2=O)CC(O)(C(=O)COC(=O)CCC(=O)NCCN1CCOCC1)CC3O[C@H]1C[C@H](n2cccc2)[C@H](O)[C@H](C)O1.O=P(O)(O)O", "note": "(stereo partly drawn) [Example 96, 10-((3′-(Pyrrol-1-yl)-2′,3′,6′-Trideoxy-Alpha-L-Lyxo-Hexylpyranyl)Oxy)-7,8,9,10-Tetrahydro-6,8,11-Trihydroxy-13-Oxo-14-(4-((2-(Morpholin-1-yl)Ethyl)Amino)-4-Oxo-Butyrato)-1-Methoxy-5,12-Naphthalenedione Phosphate]", "values": [
      {"measurement": "Number of Dead Animals ♂/♀", "setting": "mice of ICR strain; 40 mg/kg, 5 administrations", "result": "0/1"},
      {"measurement": "Number of Dead Animals ♂/♀", "setting": "mice of ICR strain; 45 mg/kg, 5 administrations", "result": "0/0"},
      {"measurement": "Number of animals that died immediately after the injection (a) ♂/♀", "setting": "mice of ICR strain; 45 mg/kg, 5 administrations", "result": "1/2"},
      {"measurement": "Number of Dead Animals ♂/♀", "setting": "mice of ICR strain; 50 mg/kg, 5 administrations", "result": "0/0"},
      {"measurement": "Number of animals that died immediately after the injection (a) ♂/♀", "setting": "mice of ICR strain; 50 mg/kg, 5 administrations", "result": "1/1"},
      {"measurement": "Number of Dead Animals ♂/♀", "setting": "mice of ICR strain; 55 mg/kg, 5 administrations", "result": "5/4"},
      {"measurement": "Number of animals that died immediately after the injection (a) ♂/♀", "setting": "mice of ICR strain; 55 mg/kg, 5 administrations", "result": "5/3"},
      {"measurement": "Number of Dead Animals ♂/♀", "setting": "mice of ICR strain; 60 mg/kg, 5 administrations", "result": "3/4"},
      {"measurement": "stability (degraded product by HPLC)", "setting": "[1]", "result": "No obvious degraded product was observed"}
    ]},
    {"smiles": "COc1cccc2c1C(=O)c1c(O)c3c(c(O)c1C2=O)C[C@@](O)(C(=O)CO)C[C@@H]3O[C@H]1C[C@H](n2cccc2)[C@H](O)[C@H](C)O1", "note": "[3′-Pyrrolyldoxorubicin]", "values": [
      {"measurement": "Number of Dead Animals ♂/♀", "setting": "mice of ICR strain; 20 mg/kg, 4 administrations", "result": "5/5"},
      {"measurement": "Mortality Rate (%)", "setting": "mice of ICR strain; 20 mg/kg, 4 administrations, total dosage 80 mg/kg", "result": 100, "unit": "%"},
      {"measurement": "Number of Dead Animals ♂/♀", "setting": "mice of ICR strain; 25 mg/kg, 4 administrations", "result": "5/5"},
      {"measurement": "Mortality Rate (%)", "setting": "mice of ICR strain; 25 mg/kg, 4 administrations, total dosage 100 mg/kg", "result": 100, "unit": "%"},
      {"measurement": "Number of Dead Animals ♂/♀", "setting": "mice of ICR strain; 30 mg/kg, 3 administrations", "result": "5/5"},
      {"measurement": "Mortality Rate (%)", "setting": "mice of ICR strain; 30 mg/kg, 3 administrations, total dosage 90 mg/kg", "result": 100, "unit": "%"}
    ]}
  ]
}
